Laboratory results taken from patent US12581252B2, “Substituted pyrrolo[3,4-b]pyridines as PI3K-α inhibitors” (Relay Therapeutics, Inc., priority 2020, dated 2026).

Legend:
cells = conditions: Homo sapiens, MCF-10A, read-out: MCF10A IC50
H1047R PIK3CA enzyme = H1047R PIK3CA enzyme (Homo sapiens, UniProt P42336, H1047R); assay: ADP-Glo Biochemical PIK3CA Kinase Assay
H1047R PIK3CA enzyme, sequence (P42336 whole entry H1047R): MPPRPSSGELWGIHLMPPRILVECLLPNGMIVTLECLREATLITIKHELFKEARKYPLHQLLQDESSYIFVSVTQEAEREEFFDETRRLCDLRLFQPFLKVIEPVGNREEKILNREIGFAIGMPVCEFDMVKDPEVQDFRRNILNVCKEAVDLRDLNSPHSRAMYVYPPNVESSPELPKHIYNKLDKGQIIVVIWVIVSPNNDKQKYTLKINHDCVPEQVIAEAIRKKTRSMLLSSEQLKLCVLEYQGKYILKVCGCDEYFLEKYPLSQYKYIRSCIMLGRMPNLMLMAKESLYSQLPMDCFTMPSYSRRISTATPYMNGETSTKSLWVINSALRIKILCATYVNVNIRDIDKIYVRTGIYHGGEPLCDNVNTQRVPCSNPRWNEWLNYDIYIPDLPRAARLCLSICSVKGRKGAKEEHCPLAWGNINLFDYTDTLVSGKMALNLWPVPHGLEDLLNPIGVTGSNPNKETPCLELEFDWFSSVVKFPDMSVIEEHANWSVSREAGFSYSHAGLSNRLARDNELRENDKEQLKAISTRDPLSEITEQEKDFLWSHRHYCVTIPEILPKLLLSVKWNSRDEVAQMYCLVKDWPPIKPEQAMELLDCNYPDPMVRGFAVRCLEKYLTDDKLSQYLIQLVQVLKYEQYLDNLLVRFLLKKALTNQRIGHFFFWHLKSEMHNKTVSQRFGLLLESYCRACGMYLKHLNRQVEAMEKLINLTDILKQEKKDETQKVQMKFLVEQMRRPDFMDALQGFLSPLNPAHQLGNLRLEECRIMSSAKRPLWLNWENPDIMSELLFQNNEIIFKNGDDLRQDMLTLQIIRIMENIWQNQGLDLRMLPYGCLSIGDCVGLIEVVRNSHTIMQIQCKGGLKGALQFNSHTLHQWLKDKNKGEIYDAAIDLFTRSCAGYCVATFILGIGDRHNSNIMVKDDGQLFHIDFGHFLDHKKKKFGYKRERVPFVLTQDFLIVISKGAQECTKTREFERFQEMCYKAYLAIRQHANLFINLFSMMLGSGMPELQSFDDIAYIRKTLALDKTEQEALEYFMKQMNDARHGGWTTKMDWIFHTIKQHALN
H1047R PIK3CA enzyme, sequence (P27986 whole entry partner): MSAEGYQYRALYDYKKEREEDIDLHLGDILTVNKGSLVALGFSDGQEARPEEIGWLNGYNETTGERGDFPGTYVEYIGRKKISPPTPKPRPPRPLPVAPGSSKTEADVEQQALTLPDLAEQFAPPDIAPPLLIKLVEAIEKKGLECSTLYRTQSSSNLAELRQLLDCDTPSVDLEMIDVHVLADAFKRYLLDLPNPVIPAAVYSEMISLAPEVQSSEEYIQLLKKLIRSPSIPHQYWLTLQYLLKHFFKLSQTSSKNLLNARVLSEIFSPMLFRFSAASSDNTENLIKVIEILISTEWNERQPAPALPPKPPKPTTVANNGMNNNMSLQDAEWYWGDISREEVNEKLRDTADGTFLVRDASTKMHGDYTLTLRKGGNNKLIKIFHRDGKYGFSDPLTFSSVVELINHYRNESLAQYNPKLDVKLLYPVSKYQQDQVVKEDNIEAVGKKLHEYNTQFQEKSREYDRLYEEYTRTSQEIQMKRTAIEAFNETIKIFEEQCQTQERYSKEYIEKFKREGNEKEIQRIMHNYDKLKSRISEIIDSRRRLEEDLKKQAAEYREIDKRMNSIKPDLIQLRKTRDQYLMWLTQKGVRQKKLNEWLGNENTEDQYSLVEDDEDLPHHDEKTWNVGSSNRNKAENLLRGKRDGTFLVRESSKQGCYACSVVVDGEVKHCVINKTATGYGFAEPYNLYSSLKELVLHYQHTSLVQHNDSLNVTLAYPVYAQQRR

| Compound | IC50 (cells) [nM] | IC50 (H1047R PIK3CA enzyme) [nM] |
| --- | --- | --- |
| [2H]C1(c2ccccc2C)NC(=O)c2cccc(NC(=O)c3csc4ccccc34)c21 (stereo not drawn) [Compound I-25] | 1000 to 5000 | ≤ 100 |
| NC(=O)c1nc(-c2cc(NC(=O)c3cc(F)cc(C(F)(F)F)c3)c3c(c2)C(=O)NC3c2cc(F)ccc2Cl)cs1 (stereo not drawn) [Compound I-1067] | < 1000 | ≤ 100 |
| O=C(Nc1cc(-c2cccc3ncccc23)cc2c1C(c1cc(F)ccc1Cl)NC2=O)c1cc(F)cc(C(F)(F)F)c1 (stereo not drawn) [Compound I-931] | < 1000 | ≤ 100 |
| O=C(Nc1cc(NC2=N[C@H](C(F)(F)F)CO2)cc2c1[C@H](c1cc(F)ccc1Cl)NC2=O)c1cc(F)cc(C(F)(F)F)c1 (single isomer, unassigned) [Compound I-2387] | 1000 to 5000 | ≤ 100 |
| O=C(Nc1cc(-c2ccc3c(c2)OCCO3)cc2c1C(c1cc(F)ccc1Cl)NC2=O)c1cc(F)cc(C(F)(F)F)c1 (stereo not drawn) [Compound I-932] | 1000 to 5000 | 100 to 500 |
| Cc1ncncc1-c1cc(NC(=O)c2cc(F)cc(C(F)(F)F)c2)c2c(c1)C(=O)NC2c1cc(F)ccc1Cl (stereo not drawn) [Compound I-985] | < 1000 | ≤ 100 |
| CC[C@@]1(O)CN(C(=O)Nc2cccc3c2[C@@H](c2cc(F)ccc2Cl)NC3=O)c2ccc(F)cc21 (single isomer, unassigned) [Compound I-2461] | < 1000 | ≤ 100 |
| O=C(Nc1cc(-c2ccc3c(c2)C(=O)NCCO3)cc2c1C(c1cc(F)ccc1Cl)NC2=O)c1cc(F)cc(C(F)(F)F)c1 (stereo not drawn) [Compound I-1048] | < 1000 | ≤ 100 |
| O=C(Nc1cc(-c2ccc3ncnn3c2)cc2c1C(c1cc(F)ccc1C(F)F)NC2=O)c1cc(F)cc(C(F)(F)F)c1 (stereo not drawn) [Compound I-1057] | < 1000 | ≤ 100 |
| O=C(Nc1cc(-c2ccc3nccnc3c2)cc2c1C(c1cc(F)ccc1Cl)NC2=O)c1cc(F)cc(C(F)(F)F)c1 (stereo not drawn) [Compound I-1012] | < 1000 | ≤ 100 |
| Nc1cc(NC(=O)c2cc(F)cc(C(F)(F)F)c2)c2c(c1)C(=O)NC2c1cc(F)ccc1C(F)F (stereo not drawn) [Compound I-289] | < 1000 | ≤ 100 |
| O=C1N[C@H](c2cc(F)ccc2Cl)c2c(NC(=O)N3C[C@@](O)(C(F)(F)F)c4cc(F)ccc43)cc(N3CCCC3=O)cc21 (single isomer, unassigned) [Compound I-2665] | < 1000 | ≤ 100 |
| CNC(=O)c1cc(NC(=O)c2csc3ccccc23)c2c(c1)C(=O)N[C@H]2c1ccccc1C [Compound I-76, (S)-7-(Benzo[b]thiophene-3-carboxamido)-N-methyl-3-oxo-1-(o-tolyl)isoindoline-5-carboxamide] | < 1000 | ≤ 100 |
| Cn1ccc(-c2cc(NC(=O)c3cc(F)cc(C(F)(F)F)c3)c3c(c2)C(=O)N[C@@H]3c2cc(F)ccc2Cl)cc1=O (stereo in doubt) [Compound I-1002] | < 1000 | ≤ 100 |
| O=C1N[C@H](c2cc(F)ccc2Cl)c2c(NC(=O)N3C[C@](O)(C(F)(F)F)c4cc(F)ccc43)cc(C(F)F)cc21 (single isomer, unassigned) [Compound I-2579] | < 1000 | ≤ 100 |
| Cc1nccn1-c1cc(NC(=O)N2C[C@@](O)(C(F)(F)F)c3cc(F)ccc32)c2c(c1)C(=O)N[C@@H]2c1cc(F)ccc1Cl (single isomer, unassigned) [Compound I-2661] | < 1000 | ≤ 100 |
| O=C(Nc1cc(N2CCn3ncnc3C2)cc2c1C(c1cc(F)ccc1Cl)NC2=O)c1cc(F)cc(C(F)(F)F)c1 (stereo not drawn) [Compound I-1040] | 1000 to 5000 | ≤ 100 |

| Compound | IC50 (cells) [nM] | IC50 (H1047R PIK3CA enzyme) [nM] |
| --- | --- | --- |
| O=C(Nc1cc(-n2ccnc2)cc2c1C(c1cc(F)ccc1Cl)NC2=O)c1cc(F)cc(C(F)(F)F)c1 (stereo not drawn) [Compound I-1015] | < 1000 | ≤ 100 |
| CS(=N)(=O)Cc1cc(NC(=O)c2cc(F)cc(C(F)(F)F)c2)c2c(c1)C(=O)NC2c1cc(F)ccc1Cl (stereo not drawn) [Compound I-1018] | < 1000 | ≤ 100 |
| Cn1ccc(Nc2cc(NC(=O)c3cc(F)cc(C(F)(F)F)c3)c3c(c2)C(=O)N[C@H]3c2cc(F)ccc2Cl)n1 [Compound I-1071] | < 1000 | ≤ 100 |
| Cn1cnc(Nc2cc(NC(=O)c3cc(F)cc(C(F)(F)F)c3)c3c(c2)C(=O)NC3c2cc(F)ccc2Cl)n1 (stereo not drawn) [Compound I-976] | < 1000 | ≤ 100 |
| O=C1CCc2c(cccc2-c2cc(NC(=O)c3cc(F)cc(C(F)(F)F)c3)c3c(c2)C(=O)NC3c2cc(F)ccc2Cl)N1 (stereo not drawn) [Compound I-1028] | < 1000 | ≤ 100 |
| Cc1nocc1Nc1cc(NC(=O)c2cc(F)cc(C(F)(F)F)c2)c2c(c1)C(=O)NC2c1cc(F)ccc1Cl (stereo not drawn) [Compound I-856] | < 1000 | ≤ 100 |
| O=C1N[C@H](c2cc(F)ccc2Cl)c2c(NC(=O)N3C[C@@](O)(C(F)(F)F)c4cc(F)ccc43)cc(-n3ccnn3)cc21 (single isomer, unassigned) [Compound I-2547] | < 1000 | ≤ 100 |
| Cn1nc(-c2cc(NC(=O)c3cc(F)cc(C(F)(F)F)c3)c3c(c2)C(=O)NC3c2cc(F)ccc2Cl)ccc1=O (stereo not drawn) [Compound I-1076] | < 1000 | ≤ 100 |
| CNc1cc(NC(=O)N2C[C@@](O)(C(F)(F)F)c3cc(F)ccc32)c2c(c1)C(=O)N[C@@H]2c1cc(F)ccc1Cl (single isomer, unassigned) [Compound I-2640] | < 1000 | ≤ 100 |
| NCc1cc(NC(=O)N2CC(O)(C(F)F)c3cc(F)ccc32)c2c(c1)C(=O)NC2c1cc(F)ccc1Cl (stereo not drawn) [Compound I-2597] | 10000 to 36000 | ≤ 100 |
| O=C1NC(c2cc(F)ccc2Cl)c2c(NC(=O)c3nsc4ccccc34)cccc21 (stereo not drawn) [Compound I-83] | < 1000 | ≤ 100 |
| N#CCc1cc(NC(=O)N2C[C@](O)(C(F)F)c3cc(F)ccc32)c2c(c1)C(=O)N[C@H]2c1cc(F)ccc1Cl (single isomer, unassigned) [Compound I-2601] | < 1000 | ≤ 100 |
| O=C(Nc1cc(-c2ccc3nccn3n2)cc2c1C(c1cc(F)ccc1Cl)NC2=O)c1cc(F)cc(C(F)(F)F)c1 (stereo not drawn) [Compound I-905] | < 1000 | ≤ 100 |
| O=C1N[C@H](c2cc(F)ccc2Cl)c2c(NC(=O)N3C[C@](O)(C(F)F)c4cc(F)ccc43)cccc21 (single isomer, unassigned) [Compound I-2558] | < 1000 | ≤ 100 |
| Cc1ccccc1C1NC(=O)c2cc(N)cc(NC(=O)c3cc(F)cc(C(F)(F)F)c3)c21 (stereo not drawn) [Compound I-40] | 1000 to 5000 | ≤ 100 |
| O=C(Nc1cc(-c2nccs2)cc2c1C(c1cc(F)ccc1Cl)NC2=O)c1cc(F)cc(C(F)(F)F)c1 (stereo not drawn) [Compound I-921] | < 1000 | ≤ 100 |
